In patent US11312692B1, “Polymorphic compounds and uses thereof” (Aldeyra Therapeutics, Inc., priority 2018, dated 2022):

Experiments:
Format in all cases: physicochemical
[1] = Aqueous solubility at pH 1, 4.5 and 6.8 (HPLC concentration, XRPD of solids); details: for solubility: thermodynamic from solid, shaken at ambient temperature
Protocol: Approximately 20 mg of each of Compounds 1 and 5-8 was weighed into three 2 mL vials. The appropriate pH buffer was added to achieve pH values of pH 1, 4.5 and 6.8. The pH was measured after buffer addition and the pH adjusted if required back to the appropriate pH. […]

[2] = Dynamic Vapour Sorption (DVS) with post-DVS XRPD; details: for solid form post-DVS by XRPD: after DVS cycles
Protocol: Dynamic Vapour Sorption (DVS): approximately, 10 mg of sample was placed into a mesh vapour sorption balance pan and loaded into a DVS-1 dynamic vapour sorption balance, a DVS Intrinsic dynamic vapour sorption balance or a DVS Advantage dynamic vapour sorption balance by Surface Measurement Systems. The sample was subjected to a ramping profile from 40-90% relative humidity (RH) at 10% increments, maintaining the sample at each step until a stable weight had been achieved (dm/dt 0.004%, minimum step length 30 minutes, maximum step length 500 minutes) at 25° C. After completion of the sorption cycle, the sample was dried using the same procedure to 0% RH and then a second sorption cycle back to 40% RH. Two cycles were performed. The weight change during the sorption/desorption cycles were plotted, allowing for the hygroscopic nature of the sample to be determined. XRPD analysis was then carried out on any solid retained.

[3] = 1 week stability (40° C./75% RH, 80° C., ambient), XRPD and HPLC purity
Protocol: Scale up of both Forms B and C was carried out on the 200 mg scale. Form B was produced from acetone through evaporation. Characterisation of the solid, indicated the material had long lath-like crystals, with the remaining parameters consistent with the previously produced Form B material. Further analysis of the solid by NMR and mass spectrometry identified the material as an imine.
(§1) Form C material was produced through crash cooling to −18° C. in acetonitrile, the material produced through this scale-up was identified as being similar to the previous Form C material.

[4] = Conversion of solid form on grinding (XRPD)
Protocol: as §1

CC(C)(O)c1cc2oc(-c3ccccc3)nc2cc1N [Compound 1 Form A]
solubility ([1]; aqueous buffer, pH 4.5 buffer): ≥ 500 mg/mL
solubility ([1]; aqueous buffer, pH 6.8 buffer): ≥ 500 mg/mL
solubility ([1]; simulated gastric fluid, pH 1 buffer): ≥ 500 mg/mL

CC(C)(O)c1cc2oc(-c3ccccc3)nc2cc1N [Compound A, Form A]
hygroscopic nature (DVS) ([2]; DVS, 25° C.): slightly hygroscopic
uptake at 90% RH (DVS) ([2]; DVS, 25° C., 90% RH): 0.6%
solid form post-DVS by XRPD [2]: consistent with the input material

CC(C)(O)c1cc2oc(-c3ccccc3)nc2cc1N [Compound A, Form C]
hygroscopic nature (DVS) ([2]; DVS, 25° C.): slightly hygroscopic
solid form post-DVS by XRPD [2]: Form A
drop in purity over the stability period ([3]; 1 week, 40° C./75% RH, versus input Form C purity): 0.1%
change in purity over the stability period ([3]; 1 week, 80° C.): no change
change in purity over the stability period ([3]; 1 week, ambient conditions): no change
solid form after 1 week stability by XRPD ([3]; all three conditions (40° C./75% RH, 80° C., ambient)): converted to Form A
solid form when ground [4]: mixture of Forms A and C

CC(C)(O)c1cc2oc(-c3ccccc3)nc2cc1N.CS(=O)(=O)O [Form A of Compound 1]
aqueous solubility compared with other salt forms ([1]; versus Form C of Compound 5, Form A of Compound 6, Form B of Compound 7, Form B of Compound 8, pH 1, 4.5, 6.8 buffers, ca. 20 hours, ambient): far more soluble
